The values below come from article PMC11909324 (Journal of the Science of Food and Agriculture, 2024).

Values joined by “and” are separate entries in the source; they are usually repeats but may differ in a detail not shown here. Equal entries are not always repeated.

The target in test [1] is T1, xanthine oxidase (XO) (Bos taurus, UniProt P80457).
T1 construct: XO (from bovine milk); purchased Merck (Darmstadt, Germany); host or cells: bovine milk (natural source)
Nature of the test: XO assay with xanthine as substrate (uric acid formation, HPLC-UV).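 As to all read-outs here: incubations in 0.05 mol L^−1 sodium phosphate buffer, with uric acid and remaining xanthine both quantified by HPLC-UV.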 It counts as biochemical, bovine. Particulars: for decrease in uric acid production (inhibition of XO-catalyzed xanthine oxidation) / inhibition at 20 µM: inhibitor 20 μmol L^−1; for inhibition at 20 µM: read-out: decrease in uric acid production (inhibition of XO-catalyzed xanthine oxidation).

The target in test [2] is T1, xanthine oxidase (XO). The experiment in a line: Fluorescence quenching studies of polyphenol-XO complexes. It counts as binding, bovine. The following applies: λex 280 nm, λem 335 nm, XO 0.4 μmol L^−1, pH 7.5; for Log K SV ± SEM (Stern–Volmer quenching constant): K SV in L mol^−1; for Log K ± SEM (binding constant, modified Stern–Volmer) / Kd: association constant K in L mol^−1; for Kd: read-out: Log K ± SEM (binding constant, modified Stern–Volmer) (converted). On the procedure:
Increasing concentrations of polyphenols (0, 2, 4, 6, 8 and 10 μmol L^−1) were added to a standard amount of XO (0.4 μmol L^−1) in sodium phosphate buffer (0.05 mol L^−1, pH 7.5). Then, the emission spectra of XO were recorded using 280 nm excitation wavelength. The inner‐filter effects of silymarin components/metabolites were corrected based on the following equation[39], [41], [42]: (1) Icor=Iobs×e^Aex+Aem/2 where I cor is the corrected and I obs is the observed emission intensity; while A ex and A em are the absorbance of polyphenols at the excitation and emission wavelengths applied, respectively. Polyphenol‐induced fluorescence quenching was evaluated at 335 nm. Stern–Volmer quenching constants (K SV; unit: L mol^−1) of polyphenol–XO complexes were determined using the graphical application of the Stern–Volmer equation[43], [44], [45]: (2) I0/I=1+KSV×Q where I 0 and I are the emission signals of XO without and with the polyphenols tested, respectively, and [Q] denotes the molar concentration (mol L^−1) of the quencher (polyphenols). The binding constants (K; unit: L mol^−1) of polyphenol–XO complexes were calculated applying the modified Stern–Volmer equation[43], [44], [45]: (3) I0/I0−I=1/fa×K×1/Q+1/fa where I 0, I and [Q] have the same meaning as in Eqn (2), and f a is the fraction of the accessible fluorophore.

Test [3] addresses T1, xanthine oxidase (XO). Nature of the test: XO assay with 6MP as substrate (6-thiouric acid formation, HPLC-UV).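 As to all read-outs here: incubation in 0.05 mol L^−1 sodium phosphate buffer, with 6MP and 6-thiouric acid quantified by HPLC-UV and conversion taken as the product share of substrate plus product.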 It counts as biochemical, bovine. The following applies: for decrease in 6-thiouric acid formation (inhibition of XO-catalyzed 6MP oxidation) / lower decrease in metabolite formation in the 6MP assay than in the xanthine assay: inhibitor 20 μmol L^−1; for lower decrease in metabolite formation in the 6MP assay than in the xanthine assay: difference between assays.

T1 sequence (P80457 whole entry): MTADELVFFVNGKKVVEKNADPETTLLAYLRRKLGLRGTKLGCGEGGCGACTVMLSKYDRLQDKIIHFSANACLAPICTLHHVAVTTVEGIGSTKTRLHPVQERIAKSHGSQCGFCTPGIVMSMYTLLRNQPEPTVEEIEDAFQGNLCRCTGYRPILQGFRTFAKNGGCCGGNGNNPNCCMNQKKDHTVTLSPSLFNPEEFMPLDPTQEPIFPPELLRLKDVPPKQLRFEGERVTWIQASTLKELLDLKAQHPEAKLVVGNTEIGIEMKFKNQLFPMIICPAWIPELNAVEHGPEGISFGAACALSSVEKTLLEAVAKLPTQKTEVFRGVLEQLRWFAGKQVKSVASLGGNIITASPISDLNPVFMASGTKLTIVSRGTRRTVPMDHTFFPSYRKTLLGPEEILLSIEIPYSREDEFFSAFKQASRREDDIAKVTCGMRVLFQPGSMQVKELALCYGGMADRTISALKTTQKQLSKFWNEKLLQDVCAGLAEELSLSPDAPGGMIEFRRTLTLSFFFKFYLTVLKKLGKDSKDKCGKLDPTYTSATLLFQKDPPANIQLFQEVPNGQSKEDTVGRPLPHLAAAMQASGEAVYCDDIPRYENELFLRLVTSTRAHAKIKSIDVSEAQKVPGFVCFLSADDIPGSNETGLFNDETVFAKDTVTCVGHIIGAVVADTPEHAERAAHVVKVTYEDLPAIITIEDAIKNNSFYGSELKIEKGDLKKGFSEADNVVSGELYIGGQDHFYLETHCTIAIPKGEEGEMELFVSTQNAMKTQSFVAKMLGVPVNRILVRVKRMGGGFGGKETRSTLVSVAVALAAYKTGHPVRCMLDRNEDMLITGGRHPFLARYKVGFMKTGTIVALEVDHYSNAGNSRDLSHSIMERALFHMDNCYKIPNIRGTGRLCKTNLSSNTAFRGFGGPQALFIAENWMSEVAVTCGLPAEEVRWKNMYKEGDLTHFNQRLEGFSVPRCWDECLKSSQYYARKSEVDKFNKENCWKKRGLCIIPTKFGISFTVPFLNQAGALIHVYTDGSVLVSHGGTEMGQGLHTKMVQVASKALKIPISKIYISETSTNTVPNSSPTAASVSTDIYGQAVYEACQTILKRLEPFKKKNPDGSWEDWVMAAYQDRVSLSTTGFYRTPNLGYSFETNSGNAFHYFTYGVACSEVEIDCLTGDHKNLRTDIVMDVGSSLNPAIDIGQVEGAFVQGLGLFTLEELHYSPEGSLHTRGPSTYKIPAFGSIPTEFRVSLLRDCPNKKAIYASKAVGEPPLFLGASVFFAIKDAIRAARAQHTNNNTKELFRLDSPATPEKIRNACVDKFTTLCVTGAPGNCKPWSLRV

Regarding `COc1cc([C@H]2Oc3cc([C@H]4Oc5cc(O)cc(O)c5C(=O)[C@@H]4O)ccc3O[C@@H]2CO)ccc1OS(=O)(=O)O` [SAS, silybin A‐20‐O‐sulfate], the IC50 on xanthine oxidase (XO) [1] (XO 0.0003 U mL^−1, xanthine 5 μmol L^−1, 8 min, 37 °C, pH 7.5, read-out: IC50, xanthine oxidation) was 1.4 µM and 1.43 µM. The “decrease in uric acid production (inhibition of XO-catalyzed xanthine oxidation)” value at xanthine oxidase (XO) [1] (xanthine 5 μmol L^−1) was “more than 80%”. The “α = IC50 of flavonoid/IC50 of positive control, xanthine oxidation” value at xanthine oxidase (XO) [1] (relative to APU) stood at 5.50. Also, on xanthine oxidase (XO) [2], the “Log K SV ± SEM (Stern–Volmer quenching constant)” value (“Log K SV ± SEM” for short) is given as 4.58 ± 0.03 and the “Log K ± SEM (binding constant, modified Stern–Volmer)” value is listed as 4.99 ± 0.05. The IC50 on xanthine oxidase (XO) [3] (XO 0.01 U mL^−1, 6MP 5 μmol L^−1, 25 min, 37 °C, pH 7.5, read-out: IC50, 6MP oxidation) worked out at 2.91 µM. In addition, the “IC50(6MP)/IC50(xanthine)” value on xanthine oxidase (XO) [3] (ratio of IC50 values with the two substrates) was 2.0. For the same compound, the “α = IC50 of flavonoid/IC50 of positive control, 6MP oxidation” value at xanthine oxidase (XO) [3] (relative to APU) was 0.69.

Turning to `O=C(O[C@@H]1Cc2c(O)cc(O)cc2O[C@@H]1c1ccc(O)c(O)c1)c1cc(O)c(O)c(O)c1` [ECG, epicatechin gallate], the inhibition at 20 µM on xanthine oxidase (XO) [1] (xanthine 5 μmol L^−1) was about 50%. Also, at xanthine oxidase (XO) [3] (6MP 5 μmol L^−1), the “decrease in 6-thiouric acid formation (inhibition of XO-catalyzed 6MP oxidation)” value is on record as “weak to moderate inhibitors”.

For the compound `Oc1cc(O)c2c(c1)O[C@H](c1ccc(O)c(O)c1)[C@H](O)C2` [ECT, epicatechin], the “decrease in uric acid production (inhibition of XO-catalyzed xanthine oxidation)” value at xanthine oxidase (XO) [1] (xanthine 5 μmol L^−1) was “did not cause significant changes”.

Turning to `COc1cc(C2Oc3c(O)cc(C4Oc5cc(O)cc(O)c5C(=O)C4O)cc3C2CO)ccc1OS(=O)(=O)O` (mixture of isomers) [SCS, silychristin‐19‐O‐sulfate], on xanthine oxidase (XO) [1] (xanthine 5 μmol L^−1), the “decrease in uric acid production (inhibition of XO-catalyzed xanthine oxidation)” value is recorded as “weaker effect compared to its parent compound”. In addition, on xanthine oxidase (XO) [2], the “Log K SV ± SEM” value stood at 4.37 ± 0.03 and the “Log K ± SEM (binding constant, modified Stern–Volmer)” value is listed as 4.66 ± 0.02. In addition, the “decrease in 6-thiouric acid formation (inhibition of XO-catalyzed 6MP oxidation)” value at xanthine oxidase (XO) [3] (6MP 5 μmol L^−1) is on record as “weak to moderate inhibitors”. Besides, the “lower decrease in metabolite formation in the 6MP assay than in the xanthine assay” value on xanthine oxidase (XO) [3] is reported as about 20%.

In the case of `COc1cc([C@@H]2Oc3cc([C@H]4Oc5cc(O)cc(O)c5C(=O)[C@@H]4O)ccc3O[C@H]2CO)ccc1O` [SB, (2R,3R)‐3,5,7‐trihydroxy‐2‐[(2S,3S)‐3‐(4‐hydroxy‐3‐methoxyphenyl)‐2‐(hydroxymethyl)‐2,3‐dihydro‐1,4‐benzodioxin‐6‐yl]‐2,3‐dihydrochromen‐4‐one], the “decrease in uric acid production (inhibition of XO-catalyzed xanthine oxidation)” value at xanthine oxidase (XO) [1] (xanthine 5 μmol L^−1) is on record as “only weak inhibitors”. Also, at xanthine oxidase (XO) [2], the “Log K SV ± SEM” value is on record as 4.49 ± 0.01 and the Kd is 13.5 µM. Also, at xanthine oxidase (XO) [3] (6MP 5 μmol L^−1), the “decrease in 6-thiouric acid formation (inhibition of XO-catalyzed 6MP oxidation)” value is “weak to moderate inhibitors”.

On to `COc1cc([C@H]2Oc3ccc([C@H]4Oc5cc(O)cc(O)c5C(=O)[C@@H]4O)cc3O[C@@H]2CO)ccc1O` [ISA, isosilybin A], for which the inhibition at 20 µM on xanthine oxidase (XO) [1] (xanthine 5 μmol L^−1) is 64%. For the same compound, at xanthine oxidase (XO) [2], the “Log K SV ± SEM” value was found to be 4.46 ± 0.01 and the Kd was 18.2 µM. Further, the “decrease in 6-thiouric acid formation (inhibition of XO-catalyzed 6MP oxidation)” value at xanthine oxidase (XO) [3] (6MP 5 μmol L^−1) is given as “weak to moderate inhibitors”. Further, the “lower decrease in metabolite formation in the 6MP assay than in the xanthine assay” value on xanthine oxidase (XO) [3] is reported as about 20%.

For `Oc1cc(O)c2c(c1)O[C@H](c1cc(O)c(O)c(O)c1)[C@H](O)C2` [EGC, epigallocatechin], the “decrease in uric acid production (inhibition of XO-catalyzed xanthine oxidation)” value at xanthine oxidase (XO) [1] (xanthine 5 μmol L^−1) is given as “did not cause significant changes”. On xanthine oxidase (XO) [3] (6MP 5 μmol L^−1), the “decrease in 6-thiouric acid formation (inhibition of XO-catalyzed 6MP oxidation)” value was “only slight inhibitory action”.

Consider `Oc1cc(O)c2c(c1)OC(c1ccc(O)c(O)c1)C(O)C2` (centres unmarked) [CAT, catechin], for which, at xanthine oxidase (XO) [1] (xanthine 5 μmol L^−1), the “decrease in uric acid production (inhibition of XO-catalyzed xanthine oxidation)” value is on record as “did not cause significant changes”.

Regarding `Oc1ncnc2[nH]ncc12` [APU, allopurinol, reference compound], the “decrease in uric acid production (inhibition of XO-catalyzed xanthine oxidation)” value on xanthine oxidase (XO) [1] (xanthine 5 μmol L^−1) is reported as “almost completely abolished metabolite formation”. In addition, on xanthine oxidase (XO) [3] (6MP 5 μmol L^−1), the “decrease in 6-thiouric acid formation (inhibition of XO-catalyzed 6MP oxidation)” value is listed as “marked decreases”.

With `O=C(O[C@@H]1Cc2c(O)cc(O)cc2O[C@@H]1c1cc(O)c(O)c(O)c1)c1cc(O)c(O)c(O)c1` [EGCG, epigallocatechin gallate], the “decrease in uric acid production (inhibition of XO-catalyzed xanthine oxidation)” value at xanthine oxidase (XO) [1] (xanthine 5 μmol L^−1) is recorded as “approximately 50%”. Further, at xanthine oxidase (XO) [3] (6MP 5 μmol L^−1), the “decrease in 6-thiouric acid formation (inhibition of XO-catalyzed 6MP oxidation)” value was “weak to moderate inhibitors”.

What is called IC50 is the midpoint of a concentration-inhibition curve. What is called inhibition is how much of the control response was suppressed.
